The data set is described as follows: Solubility of ferric meglumine / meglumine in solvents.

With `CNC[C@H](O)[C@@H](O)[C@H](O)[C@H](O)CO` [Meglumine, N-Methyl-D-glucamine], the solubility in water result is given as “soluble”.

The values above are taken from US20250367233A1, “NOVEL PHARMACEUTICAL COMPOSITION CONTAINING IRON AND MEGLUMINE” (priority 2024, published 2025).
